In ChEMBL document CHEMBL5532709, “Discovery of Biofilm Inhibitors from the Microbiota of Marine Egg Masses” (J Nat Prod, 2024) one finds Activity, IC50 and inhibition data, which are given here for three molecules.

Test [1] concerns Staphylococcus aureus. In words: Disruption of pre-formed biofilm of Staphylococcus aureus at 518 uM incubated for 16 to 20 hrs by crystal violet staining based analysis relative to control. Format: functional. Particulars: time 16-20 hrs.
For test [2], the system named is Staphylococcus aureus. In words: Inhibition of biofilm formation of Staphylococcus aureus incubated for 16 to 20 hrs by crystal violet staining based analysis. The test is classed as functional, organism-based.
Test [3] has as its system Staphylococcus aureus. In words: Antibacterial activity against Staphylococcus aureus assessed as bacterial growth inhibition at 0.005 to 10 mg/ml incubated for 16 to 20 hrs by crystal violet staining based analysis. Particulars: dose 0.005-10 mg/ml, time 16-20 hrs. Format: functional, organism-based.
For test [4], the system named is Staphylococcus aureus. In words: Inhibition of biofilm formation of Staphylococcus aureus at […] incubated for 16 to 20 hrs in presence of >6.25 uM FeCl3 by crystal violet staining based analysis. Particulars: dose lower 88.0 mg/ml, time 16-20 hrs. The test is classed as functional, organism-based.
Another test relates to Isoptericola. In words: Inhibition of biofilm formation of Isoptericola at 0.005 to 10 mg/ml incubated for 16 to 20 hrs by crystal violet staining based analysis. The test is classed as functional, organism-based.
Another test deals with Vibrio cholerae. In words: Inhibition of biofilm formation of Vibrio cholerae incubated for 4.5 hrs by epifluorescence based assay. Format: functional, organism-based.
Test [5] has as its system Staphylococcus aureus. In words: Inhibition of biofilm formation of methicillin-resistant Staphylococcus aureus N315 at ~1 ug/ml incubated for 24 hrs by crystal violet staining based analysis relative to control. The test is classed as functional.

pIC50: −log10 of the molar value. Active and inactive are the calls of the source. The calls are words filed in the database; no cut-off is given here.

Usually pIC50 stands for the IC50 on a negative log10 scale, so that one unit is a factor of ten. High values mean a low IC50, low ones a high IC50. For orientation: inhibition means the change of the read-out against control, counted positive when it falls. `O=C(NCCCC[C@@H]1CN=C(c2cccc(O)c2O)N1)c1cccc(O)c1O` yielded an Activity in the test with Staphylococcus aureus [1] of 30%. Also, the pIC50 with Staphylococcus aureus [2] is 4.05; in the test on Isoptericola, 4.30. The inhibition result with Staphylococcus aureus [2] (time 16-20 hrs) is “Dose-Dependent Effect”. Moreover, the inhibition result in the test with Staphylococcus aureus [3] and in the test with Staphylococcus aureus [4] was “inactive” throughout.
Regarding `C=C1Oc2cc(OC)cc(C(=O)OC)c2NC1=O`, in the test with Vibrio cholerae, the pIC50 was 4.22.
In the case of `CCCCC1CCCCCCc2cc1c(/C=C1\N=C(c3ccc[nH]3)C=C1OC)[nH]2` (stereo not drawn) [STREPTORUBIN B], 1 µg/mL produced 70% inhibition in the test on Staphylococcus aureus [5].
